Where a name gives a salt, the structure may show the parent alone.
Tests used:
Bcl-2 protein = Bcl-2 protein (Homo sapiens (Human), UniProt P10415); assay: Inhibition of Bcl-2 by the fluorescence polarisation technique; format: binding; conditions: fluorescence polarisation test; concentration that inhibits fluorescence polarisation by 50%; read-out: IC50 (nM) Bcl-2 FP
Experimental: The fluorescence polarisation tests were carried out on microplates (384 wells). […] After incubation for 2 hours, the fluorescence polarisation is measured.

[1] = tested on: RS4;11 leukaemia tumour line; assay: In vitro cytotoxicity (Microculture Tetrazolium Assay, 48 hours); format: cell-based; conditions: Homo sapiens, RS4;11 cells, 48 hours exposure, MTT, concentration that inhibits cell viability by 50%, read-out: IC50 (nM) MTT RS4
Experimental: The cytotoxicity studies were carried out on the RS4;11 leukaemia tumour line.
The cells are distributed onto microplates and exposed to the test compounds for 48 hours.

Chain of Bcl-2 protein (P10415 whole entry): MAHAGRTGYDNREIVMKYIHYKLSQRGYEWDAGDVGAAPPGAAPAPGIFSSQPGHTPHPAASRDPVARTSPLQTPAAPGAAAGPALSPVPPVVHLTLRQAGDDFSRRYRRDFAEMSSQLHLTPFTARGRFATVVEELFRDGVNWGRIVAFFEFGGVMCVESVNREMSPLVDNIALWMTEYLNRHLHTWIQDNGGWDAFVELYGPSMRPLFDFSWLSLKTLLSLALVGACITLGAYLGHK

Compound	IC50 (Bcl-2 protein)	IC50 [1]
Cc1ccc(N(C(=O)c2cc(-c3cc(F)ccc3C(=O)N3Cc4ccccc4C[C@H]3CN3CCOCC3)n3c2COCC3)c2ccc(O)cc2)cc1F [Example 98, N-(3-Fluoro-4-methylphenyl)-6-(5-fluoro-2-{[(3S)-3-(morpholin-4-ylmethyl)-3,4-dihydroisoquinolin-2(1H)-yl]carbonyl}phenyl)-N-(4-hydroxyphenyl)-3,4-dihydro-1H-pyrrolo[2,1-c][1,4]oxazine-8-carboxamide hydrochloride]	12 nM	73.5 nM
COc1cccc(N(C(=O)c2cc(-c3cc(Cl)ccc3C(=O)N3Cc4ccccc4C[C@H]3CN3CCOCC3)n3c2CCCC3)c2ccc(O)cc2)c1 [Example 124, 3-(5-Chloro-2-{[(3S)-3-(morpholin-4-ylmethyl)-3,4-dihydroisoquinolin-2(1H)-yl]carbonyl}phenyl)-N-(4-hydroxyphenyl)-N-(3-methoxyphenyl)-5,6,7,8-tetrahydroindolizine-1-carboxamide hydrochloride]	28 nM	101 nM
CCn1ccc2cc(N(C(=O)c3cc(-c4cc5c(cc4C(=O)N4Cc6ccccc6C[C@H]4CN4CCOCC4)OCO5)n4ccccc34)c3ccc(O)cc3)ccc21 [Example 60, N-(1-Ethyl-1H-indol-5-yl)-N-(4-hydroxyphenyl)-3-{6-[((3S)-3-(4-morpholinylmethyl)-3,4-dihydro-2(1H)-isoquinolinyl)carbonyl]-1,3-benzodioxol-5-yl}-1-indolizine carboxamide hydrochloride]	19 nM	11.7 nM
Cn1ccc2cc(N(C(=O)c3cc(-c4cc5c(cc4C(=O)N4Cc6ccccc6C[C@H]4CN4CCOCC4)OCCO5)n4c3CCCC4)c3ccc(O)cc3)ccc21 [Example 35, N-(4-Hydroxyphenyl)-N-(1-methyl-1H-indol-5-yl)-3-{7-[((3S)-3-(4-morpholinylmethyl)-3,4-dihydro-2(1H)-isoquinolinyl)carbonyl]-2,3-dihydro-1,4-benzodioxin-6-yl}-5,6,7,8-tetrahydro-1-indolizine carboxamide]	15 nM	11.7 nM
COc1ccc(C(=O)N2Cc3ccccc3C[C@H]2CN2CCOCC2)c(-c2cc(C(=O)N(c3ccc(O)cc3)c3ccc4c(ccn4C)c3)c3n2CCCC3)c1 [Example 33, N-(4-Hydroxyphenyl)-3-{5-methoxy-2-[((3S)-3-(4-morpholinylmethyl)-3,4-dihydro-2(1H)-isoquinolinyl)carbonyl]phenyl}-N-(1-methyl-1H-indol-5-yl)-5,6,7,8-tetrahydro-1-indolizine carboxamide hydrochloride]	23 nM	12.2 nM
CN1CCCc2cc(N(C(=O)c3cc(-c4cc5c(cc4C(=O)N4Cc6ccccc6C[C@H]4CN4CCOCC4)OCCO5)n4ccccc34)c3ccc(O)cc3)ccc21 [Example 69, N-(4-Hydroxyphenyl)-N-(1-methyl-1,2,3,4-tetrahydro-6-quinolinyl)-3-{7-[((3S)-3-(4-morpholinylmethyl)-3,4-dihydro-2(1H)-isoquinolinyl)carbonyl]-2,3-dihydro-1,4-benzodioxin-6-yl}-1-indolizine carboxamide hydrochloride]	26 nM	16.7 nM
N#Cc1ccc(N(C(=O)c2cc(-c3cc(Cl)ccc3C(=O)N3Cc4ccccc4C[C@H]3CN3CCOCC3)n3c2CCCC3)c2ccc(O)cc2)cc1 [Example 129, 3-(5-Chloro-2-{[(3S)-3-(morpholin-4-ylmethyl)-3,4-dihydroisoquinolin-2(1H)-yl]carbonyl}phenyl)-N-(4-cyanophenyl)-N-(4-hydroxyphenyl)-5,6,7,8-tetrahydroindolizine-1-carboxamide hydrochloride]	9 nM	46.7 nM
Cn1ccc2cc(N(C(=O)c3cc(-c4cc(Cl)ccc4C(=O)N4Cc5ccccc5C[C@H]4CN4CCCOCC4)n4c3CCCC4)c3ccc(O)cc3)ccc21 [Example 46, 3-{5-Chloro-2-[((3S)-3-(1,4-oxazepan-4-ylmethyl)-3,4-dihydro-2(1H)-isoquinolinyl)carbonyl]phenyl}-N-(4-hydroxyphenyl)-N-(1-methyl-1H-indol-5-yl)-5,6,7,8-tetrahydro-1-indolizine carboxamide hydrochloride]	21 nM	56.8 nM
O=C(c1cc(-c2cc(Cl)ccc2C(=O)N2Cc3ccccc3C[C@H]2CN2CCOCC2)n2c1CCCC2)N(c1ccc(O)cc1)c1cc(F)cc(F)c1 [Example 125, 3-(5-Chloro-2-{[(3S)-3-(morpholin-4-ylmethyl)-3,4-dihydroisoquinolin-2(1H)-yl]carbonyl}phenyl)-N-(3,5-difluorophenyl)-N-(4-hydroxyphenyl)-5,6,7,8-tetrahydroindolizine-1-carboxamide hydrochloride]	38 nM	81.8 nM
Cl.[2H]C1([2H])Oc2cc(C(=O)N3Cc4ccccc4C[C@H]3CN3CCOCC3)c(-c3cc(C(=O)N(c4ccc(O)cc4)c4ccc5c(cnn5C)c4)c4n3CCCC4)cc2O1 [Example 50, N-(4-Hydroxyphenyl)-N-(1-methyl-1H-indazol-5-yl)-3-{2,2-dideuterio-6-[((3S)-3-(4-morpholinylmethyl)-3,4-dihydro-2(1H)-isoquinolinyl)carbonyl]-1,3-benzodioxol-5-yl}-5,6,7,8-tetrahydro-1-indolizine carboxamide hydrochloride]	13 nM	4.01 nM
O=C(c1cc(-c2cc(Cl)ccc2C(=O)N2Cc3ccccc3C[C@H]2CN2CCOCC2)n2c1CCCC2)N(c1ccc(O)cc1)c1ccsc1 [Example 85, 3-{5-Chloro-2-[((3S)-3-(4-morpholinylmethyl)-3,4-dihydro-2(1H)-isoquinolinyl)carbonyl]phenyl}-N-(4-hydroxyphenyl)-N-(3-thienyl)-5,6,7,8-tetrahydro-1-indolizine carboxamide hydrochloride]	41 nM	246 nM
N#Cc1ccccc1N(C(=O)c1cc(-c2cc(Cl)ccc2C(=O)N2Cc3ccccc3C[C@H]2CN2CCOCC2)n2c1CCCC2)c1ccc(O)cc1 [Example 134, 3-(5-Chloro-2-{[(3S)-3-(morpholin-4-ylmethyl)-3,4-dihydroisoquinolin-2(1H)-yl]carbonyl}phenyl)-N-(2-cyanophenyl)-N-(4-hydroxyphenyl)-5,6,7,8-tetrahydroindolizine-1-carboxamide hydrochloride]	37 nM	305 nM
COCCN(C)C[C@@H]1Cc2ccccc2CN1C(=O)c1ccc(Cl)cc1-c1cc(C(=O)N(c2ccc(O)cc2)c2ccc3c(ccn3C)c2)c2n1CCCC2 [Example 108, 3-(5-Chloro-2-{[(3S)-3-{[(2-methoxyethyl)(methyl)amino]methyl}-3,4-dihydroisoquinolin-2(1H)-yl]carbonyl}phenyl)-N-(4-hydroxyphenyl)-N-(1-methyl-1H-indol-5-yl)-5,6,7,8-tetrahydroindolizine-1-carboxamide hydrochloride]	9 nM	36.4 nM
O=C(c1cc(-c2cc(Cl)ccc2C(=O)N2Cc3ccccc3C[C@H]2CN2CCOCC2)n2c1CCCC2)N(c1ccc(O)cc1)c1ccc(F)c(F)c1 [Example 118, 3-(5-Chloro-2-{[(3S)-3-(morpholin-4-ylmethyl)-3,4-dihydroisoquinolin-2(1H)-yl]carbonyl}phenyl)-N-(3,4-difluorophenyl)-N-(4-hydroxyphenyl)-5,6,7,8-tetrahydroindolizine-1-carboxamide hydrochloride]	15 nM	71 nM
CN1CCN(C[C@@H]2Cc3ccccc3CN2C(=O)c2ccc(Cl)cc2-c2cc(C(=O)N(c3ccc(O)cc3)c3ccc4c(ccn4C)c3)c3n2CCCC3)CC1=O [Example 107, 3-(5-Chloro-2-{[(3S)-3-[(4-methyl-3-oxopiperazin-1-yl)methyl]-3,4-dihydroisoquinolin-2(1H)-yl]carbonyl}phenyl)-N-(4-hydroxyphenyl)-N-(1-methyl-1H-indol-5-yl)-5,6,7,8-tetrahydroindolizine-1-carboxamide hydrochloride]	7 nM	8.29 nM
O=C(c1cc(-c2cc3c(cc2C(=O)N2Cc4ccccc4C[C@H]2C[N+]2([O-])CCOCC2)OCO3)n2c1CCCC2)N(c1ccccc1)c1ccc(O)cc1 [Example 109, N-(4-Hydroxyphenyl)-3-(6-{[(3S)-3-[(4-oxidomorpholin-4-yl)methyl]-3,4-dihydroisoquinolin-2(1H)-yl]carbonyl}-1,3-benzodioxol-5-yl)-N-phenyl-5,6,7,8-tetrahydroindolizine-1-carboxamide]	30 nM	483 nM
COc1ccc(C(=O)N2Cc3ccccc3C[C@H]2CN2CCOCC2)c(-c2cc(C(=O)N(c3ccccc3)c3ccc(O)cc3)c3n2CCCC3)c1 [Example 112, N-(4-Hydroxyphenyl)-3-(5-methoxy-2-{[(3S)-3-(morpholin-4-ylmethyl)-3,4-dihydroisoquinolin-2(1H)-yl]carbonyl}phenyl)-N-phenyl-5,6,7,8-tetrahydroindolizine-1-carboxamide hydrochloride]	9 nM	139 nM
O=C(c1cc(-c2cc(Cl)ccc2C(=O)N2Cc3ccccc3C[C@H]2CN2CCOCC2)n2c1CCCC2)N(c1ccc(O)cc1)c1ccc(F)cc1F [Example 117, 3-(5-Chloro-2-{[(3S)-3-(morpholin-4-ylmethyl)-3,4-dihydroisoquinolin-2(1H)-yl]carbonyl}phenyl)-N-(2,4-difluorophenyl)-N-(4-hydroxyphenyl)-5,6,7,8-tetrahydroindolizine-1-carboxamide hydrochloride]	15 nM	194 nM
Cl.[2H]C1([2H])Oc2cc(C(=O)N3Cc4ccccc4C[C@H]3CN3CCOCC3)c(-c3cc(C(=O)N(c4ccc(O)cc4)c4ccc(C)c(F)c4)c4n3CCCC4)cc2O1 [Example 51, N-(3-Fluoro-4-methylphenyl)-N-(4-hydroxyphenyl)-3-{2,2-dideuterio-6-[((3S)-3-(4-morpholinylmethyl)-3,4-dihydro-2(1H)-isoquinolinyl)carbonyl]-1,3-benzodioxol-5-yl}-5,6,7,8-tetrahydro-1-indolizine carboxamide hydrochloride]	32 nM	26 nM
